Results published in patent US20060014712A1, “Controlled delivery of therapeutic compounds” (CeMines, Inc., priority 2004, published 2006).

Columns and labels:
Format in all cases: cell-based, human
SK-MEL-28 [1] = assay: WST-1 test (mitochondrial activity); conditions: conc 10 µM, untreated = 1
WM 266-4 [2] = assay: Apoptosis, Annexin V-Cy3 Apoptosis Kit; conditions: conc 10 µM
Protocol: (§1) Methods. Human melanoma cell lines SK-MEL-28 and WM 2664 and mouse melanoma cell line B16 were obtained from the American Tissue Culture Collection (ATCC). Cells were cultured according to recommendations of ATCC (DMEM, 10% FCS, penicillin+streptomycin) and used in experiments after two passages in the laboratory. Cells were grown in 24 well plates, each treatment in triplicates. Cells were plated 16 hours prior treatments started. Peptides were added to the media, and media was changed every day during 7 day experiment. […] Methods. Human melanoma cell lines SK-MEL-28 and WM 266-4 were obtained from the American Tissue Culture Collection (ATCC) and were cultured according to recommendations of ATCC (DMEM, 10% FCS, penicillin+streptomycin). Human keratinocytes were obtained from Clonetics and cultured according to manufacturers protocol. Cells were used in experiments after two passages in the laboratory. Cells were grown in 24 well plates, each treatment in triplicates. Cells were plated 16 hours prior treatments started. Peptides were added to the media, and media was changed every day during 7 day experiment. […] Apoptosis was analyzed using Biovision Annexin V-Cy3 Apoptosis Kit according to manufacturers protocols.

WM 266-4 [3] = assay: WST-1 test (mitochondrial activity); conditions: conc 10 µM, untreated = 1
Protocol: as §1, with “WST-1 test” for “Apoptosis”, “performed” for “analyzed using Biovision Annexin V-Cy3 Apoptosis Kit according”, “measure mitochondrial activity, which can also be used as a measure of cell number.” for “manufacturers protocols.”

SK-MEL-28 [4] = assay: Cell counting after 7 day peptide treatment; conditions: conc 10 µM, start count 10
Protocol: (§2) The ability to block interaction of MITF, SOX10 and STAT3 with active transcriptional complex and inhibit proliferation and stimulate apoptosis of melanoma cells were tested on human melanoma cell lines SK-MEL-28 and WM 266-4, and mouse melanoma cell line B16. Methods. Human melanoma cell lines SK-MEL-28 and WM 2664 and mouse melanoma cell line B16 were obtained from the American Tissue Culture Collection (ATCC). Cells were cultured according to recommendations of ATCC (DMEM, 10% FCS, penicillin+streptomycin) and used in experiments after two passages in the laboratory. Cells were grown in 24 well plates, each treatment in triplicates. Cells were plated 16 hours prior treatments started. Peptides were added to the media, and media was changed every day during 7 day experiment. CPP concentration was 10 μM For cell counting, cells were trypsinized (0.25% Trypsin, 2 mM EDTA) in Ca^+2, Mg^+2 free PBS. Cells were precipitated and resuspended in 100 μl of PBS, and 5 μl were removed for counting Methods. Human melanoma cell lines SK-MEL-28 and WM 266-4 were obtained from the American Tissue Culture Collection (ATCC) and were cultured according to recommendations of ATCC (DMEM, 10% FCS, penicillin+streptomycin). Human keratinocytes were obtained from Clonetics and cultured according to manufacturers protocol. Cells were used in experiments after two passages in the laboratory. Cells were grown in 24 well plates, each treatment in triplicates. Cells were plated 16 hours prior treatments started. Peptides were added to the media, and media was changed every day during 7 day experiment. CPP concentration was 10 μM. For cell counting, cells were trypsinized (0.25% Trypsin, 2 mM EDTA) in Ca, Mg free PBS. Cells were precipitated and resuspended in 100 μl of PBS, and 5 μl were removed for counting.

WM 266-4 [5] = assay: Cell counting after 7 day peptide treatment; conditions: conc 10 µM, start count 10
Protocol: as §2, with “CPP concentration was 10 μM For cell counting, cells were trypsinized (0.25% Trypsin, 2 mM EDTA) in Ca^+2, Mg^+2 free PBS.” left out, “CPP concentration was 10 μM.” left out

Sequence | WST-1 7 d (SK-MEL-28 [1]; CPP mimicking peptides) | Apoptosis 7 d/% (WM 266-4 [2]; CPP mimicking peptides) [%] | WST-1 7 d (WM 266-4 [3]; CPP mimicking peptides) | Cell Count 7 d (SK-MEL-28 [4]; CPP mimicking peptides) | Cell Count 7 d (WM 266-4 [5]; CPP mimicking peptides) | WST-1 7 d (SK-MEL-28 [1]; modified peptides) | Apoptosis 7 d/% (WM 266-4 [2]; modified peptides) [%] | WST-1 7 d (WM 266-4 [3]; modified peptides) | Cell Count 7 d (SK-MEL-28 [4]; modified (inhibitor/MMP2, MMP9 site) peptides) | Cell Count 7 d (WM 266-4 [5]; modified peptides)
RPKKRKVRRRVKRPMNAFMVWAQAARRKLADQY [SOX10-int1] | 0.51 | 31 | 0.6 | 28 | 25 | – | – | – | – | –
RPKKRKVRRRFNINDRIKELGTLIPKSNDPDMRWN [MITF-int1] | 0.7 | 21 | 0.8 | 39 | 30 | – | – | – | – | –
TTGGSSPQGLEAKRPKKRKVRRRFNINDRIKELGTLIPKSNDPDMRWN [MITF-int1M] | – | – | – | – | – | 0.81 | 21 | 0.8 | 42 | 25
